Laboratory results published in the CheMixHub ionic liquid set.

Assay: xn = mol fraction of the nth substance listed

CC(=O)[O-].CCCCCC[n+]1ccccc1 + O
electrical conductivity [S/m], 101 kPa
Settings	x1 = 0.8711	x1 = 0.8907	x1 = 0.9081	x1 = 0.9293	x1 = 0.9699	x2 = 0.007385
293.15 K	0.00457	0.00421	0.00389	0.00337	0.00259	0.00201
298.15 K	0.0076	0.00693	0.00609	0.00551	0.00409	0.00282
303.15 K	0.0127	0.0115	0.0102	0.009	0.00656	0.005
308.15 K	0.0171	0.0156	0.0139	0.0122	0.00887	0.00746
313.15 K	0.0256	0.0229	0.0209	0.0181	0.014	0.0112
318.15 K	0.0371	0.0331	0.03	0.0264	0.019	0.0155
323.15 K	0.0501	0.0451	0.041	0.0365	0.0271	0.0224
328.15 K	0.067	0.0608	0.0551	0.0496	0.0372	0.0318
333.15 K	0.091	0.081	0.0727	0.0639	0.0487	0.0414
338.15 K	0.124	0.111	0.101	0.0894	0.0694	0.0592
343.15 K	0.163	0.148	0.135	0.119	0.0952	0.0819

CC(=O)[O-].CCCCC[n+]1ccccc1 + O
101 kPa
Settings	electrical conductivity [S/m]
293.15 K, x1 = 0.9144	0.00606
293.15 K, x1 = 0.9163	0.006
293.15 K, x1 = 0.9314	0.00537
293.15 K, x1 = 0.948	0.00491
293.15 K, x1 = 0.9673	0.00428
293.15 K, x2 = 0.002318	0.00338
298.15 K, x1 = 0.9163	0.0103
298.15 K, x1 = 0.9314	0.00935
298.15 K, x1 = 0.948	0.00808
298.15 K, x1 = 0.9673	0.00703
298.15 K, x2 = 0.002318	0.00533
303.15 K, x1 = 0.9314	0.0157
303.15 K, x2 = 0.002318	0.00815
308.15 K, x1 = 0.9163	0.025
308.15 K, x1 = 0.9314	0.0221
313.15 K, x1 = 0.9163	0.0356
318.15 K, x1 = 0.9163	0.0509
318.15 K, x1 = 0.948	0.0396
318.15 K, x1 = 0.9673	0.0345
318.15 K, x2 = 0.002318	0.0267
323.15 K, x1 = 0.9163	0.0695
323.15 K, x2 = 0.002318	0.0339
328.15 K, x1 = 0.9314	0.081
333.15 K, x1 = 0.9144	0.13
338.15 K, x1 = 0.9144	0.175
338.15 K, x1 = 0.948	0.13
343.15 K, x1 = 0.9314	0.193

CCCCCCCCCCCC[N+](C)(C)Cc1ccccc1.[Cl-] + O
electrical conductivity [S/m], 101 kPa
Settings	293.15 K	298.15 K	303.15 K	308.15 K	313.15 K
x1 = 5.874e-05	0.0232	0.0261	0.0289	0.0318	0.0349
x1 = 8e-05	0.0313	0.0351	0.0389	0.0428	0.0469
x1 = 9.982e-05	0.0388	0.0434	0.0481	0.053	0.0579
x1 = 0.0001187	0.0459	0.0513	0.0569	0.0626	0.0686
x1 = 0.0001384	0.0531	0.0594	0.0658	0.0724	0.0792
x1 = 0.0001594	0.0603	0.0673	0.0744	0.0819	0.0899
x1 = 0.000182	0.0659	0.0734	0.0812	0.0897	0.0989
x1 = 0.0002056	0.0702	0.0783	0.087	0.0963	0.106
x1 = 0.0002284	0.0741	0.0827	0.092	0.102	0.113
x1 = 0.0002522	0.0778	0.0871	0.0969	0.108	0.12
x1 = 0.0002717	0.0809	0.0906	0.101	0.113	0.125
x1 = 0.0002895	0.0836	0.0937	0.105	0.117	0.13
x1 = 0.0003122	0.0872	0.0978	0.109	0.122	0.136

CCCCCCCCn1cc[n+](CCCCCCCC)c1.O=S(=O)([N-]S(=O)(=O)C(F)(F)F)C(F)(F)F + O
100 kPa, x2 = 0.1246
Settings	viscosity [mPa·s]
303.15 K	92.9
308.15 K	73.29
358.15 K	13.27

CCCC[n+]1ccccc1.O=S(=O)([O-])C(F)(F)F + O
298.15 K, 101 kPa
Settings	electrical conductivity [S/m]
x1 = 0.000164	0.071
x1 = 0.0004107	0.156
x1 = 0.0005313	0.208
x1 = 0.0007077	0.277
x1 = 0.0008912	0.323
x1 = 0.001062	0.395
x1 = 0.001253	0.46
x1 = 0.001353	0.501
x1 = 0.001468	0.53
x1 = 0.001598	0.586
x1 = 0.001845	0.651
x1 = 0.001955	0.674
x1 = 0.002188	0.732
x1 = 0.002246	0.746
x1 = 0.002362	0.777
x1 = 0.002429	0.785
x1 = 0.002452	0.795
x1 = 0.002604	0.836
x1 = 0.002771	0.869
x1 = 0.00288	0.909
x1 = 0.003079	0.96

CCCC[n+]1ccccc1C.F[B-](F)(F)F + O
298.15 K, 101 kPa
Settings	electrical conductivity [S/m]
x1 = 0.0002702	0.13
x1 = 0.0004161	0.188
x1 = 0.0005097	0.233
x1 = 0.0007329	0.319
x1 = 0.0008948	0.368
x1 = 0.001084	0.463
x1 = 0.001244	0.516
x1 = 0.001427	0.588
x1 = 0.001581	0.634
x1 = 0.001768	0.707
x1 = 0.001923	0.76
x1 = 0.002048	0.787
x1 = 0.00219	0.841
x1 = 0.002294	0.878
x1 = 0.002423	0.917
x1 = 0.002448	0.92
x1 = 0.002543	0.96
x1 = 0.002708	1
x1 = 0.002791	1.03

CCC[n+]1ccccc1.N#C[N-]C#N + O
100 kPa
Settings	electrical conductivity [S/m]	viscosity [mPa·s]
298.15 K, x1 = 0.9303	1.49	–
298.15 K, x1 = 0.9562	–	22.43
298.15 K, x1 = 0.9708	–	23.39
303.15 K, x1 = 0.9303	1.68	–
303.15 K, x1 = 0.9442	1.64	–
303.15 K, x1 = 0.9731	1.57	–
313.15 K, x1 = 0.9277	–	13.05
313.15 K, x1 = 0.9562	–	13.71
313.15 K, x2 = 0.01178	2.12	–
318.15 K, x1 = 0.9442	2.6	–
318.15 K, x1 = 0.9708	–	12.47
323.15 K, x1 = 0.9277	–	9.72
323.15 K, x1 = 0.9442	2.95	–
323.15 K, x1 = 0.9731	2.87	–
328.15 K, x1 = 0.9417	–	8.63
328.15 K, x1 = 0.9562	–	8.88
333.15 K, x1 = 0.9442	3.81	–
333.15 K, x1 = 0.9731	3.72	–
338.15 K, x1 = 0.9562	–	7.17
338.15 K, x1 = 0.9584	4.22	–

CCCn1cc[n+](C)c1.N[C@@H](CO)C(=O)[O-] + O
100 kPa
Settings	electrical conductivity [S/m]	viscosity [mPa·s]
298.15 K, x1 = 0.8782	–	2215
298.15 K, x1 = 0.9094	–	2314
298.15 K, x1 = 0.9257	–	2391
303.15 K, x1 = 0.9426	–	1547
308.15 K, x1 = 0.8782	–	912
313.15 K, x1 = 0.8656	0.0804	–
313.15 K, x1 = 0.8956	0.0751	–
313.15 K, x1 = 0.9115	0.0721	–
318.15 K, x1 = 0.8936	–	432
318.15 K, x1 = 0.9094	–	438
318.15 K, x1 = 0.9115	0.102	–
318.15 K, x1 = 0.928	0.0979	–
323.15 K, x1 = 0.8809	0.15	–
323.15 K, x1 = 0.8956	0.145	–
323.15 K, x1 = 0.9426	–	337
328.15 K, x1 = 0.8809	0.199	–
328.15 K, x1 = 0.9257	–	238
333.15 K, x1 = 0.8782	–	171
333.15 K, x1 = 0.9115	0.248	–
338.15 K, x1 = 0.9115	0.319	–
338.15 K, x1 = 0.9257	–	134.8
338.15 K, x1 = 0.928	0.312	–

CC[n+]1ccccc1.O=S(=O)([O-])C(F)(F)F + O
101 kPa
Settings	viscosity [mPa·s]
293.15 K, x1 = 0.067	2.47
298.15 K, x1 = 0.067	2.16
298.15 K, x1 = 0.498	15.04
313.15 K, x1 = 0.689	17.4
343.15 K, x1 = 0.689	8.42
353.15 K, x1 = 0.893	10.74

C[N+](C)(C)CCO.NCC(=O)[O-] + O
100 kPa
Settings	viscosity [mPa·s]
298.15 K, x1 = 1	501
303.15 K, x1 = 0.6966	202
308.15 K, x1 = 0.1	4.34
308.15 K, x1 = 0.3996	60.2
313.15 K, x1 = 0.3996	49
313.15 K, x1 = 0.5004	71.1
318.15 K, x1 = 0.1	3.35
318.15 K, x1 = 0.3	25.63
318.15 K, x1 = 0.3996	40.89
318.15 K, x1 = 0.5004	56
318.15 K, x1 = 1	154.5

C[N+](C)(CCCS(=O)(=O)O)C1CCCCC1.Cc1ccc(S(=O)(=O)[O-])cc1 + O
101 kPa
Settings	viscosity [mPa·s]
303.15 K, x1 = 1	113700
308.15 K, x1 = 0.06028	6.925
308.15 K, x1 = 1	56930
313.15 K, x1 = 0.01059	1.118
313.15 K, x1 = 0.06028	6
318.15 K, x1 = 0.01059	1.007
318.15 K, x1 = 0.1459	38.93
328.15 K, x1 = 0.01059	0.8334
328.15 K, x1 = 0.02771	1.636
328.15 K, x1 = 0.06028	3.944

CCCn1cc[n+](C)c1C.O=S(=O)([N-]S(=O)(=O)C(F)(F)F)C(F)(F)F + O=C1CCCO1
100 kPa, frequency 0.005 MHz
Settings	electrical conductivity [S/m]
293.15 K, x2 = 0.2006	0.28
293.15 K, x2 = 0.6992	0.992
293.15 K, x2 = 0.8002	1.19
293.15 K, x2 = 0.8999	1.2
298.15 K, x2 = 0	0.265
303.15 K, x2 = 0.1289	0.395
303.15 K, x2 = 0.8508	1.5
308.15 K, x2 = 0.2006	0.537
308.15 K, x2 = 0.6992	1.41
308.15 K, x2 = 0.9495	1.11
313.15 K, x2 = 0.6992	1.57
313.15 K, x2 = 0.8508	1.77
313.15 K, x2 = 0.8999	1.68
318.15 K, x2 = 0.4952	1.32
323.15 K, x2 = 0.2006	0.864

COCCn1cc[n+](C)c1.N#C[S-] + O=C1CCCO1
101 kPa
Settings	electrical conductivity [S/m]	viscosity [mPa·s]
288.15 K, x1 = 0.7036	0.526	34.8
288.15 K, x1 = 1	0.223	86
293.15 K, x1 = 0.8038	0.505	39.2
298.15 K, x1 = 0.3001	1.63	4.18
298.15 K, x1 = 1	0.41	53
303.15 K, x1 = 0.3001	1.8	3.68
308.15 K, x1 = 0.6015	1.36	9.6
308.15 K, x1 = 0.9012	0.791	27.2
313.15 K, x1 = 0.1027	1.99	1.82
313.15 K, x1 = 0.5006	1.79	5.6
313.15 K, x1 = 0.7036	1.33	11.8
318.15 K, x1 = 0.3001	2.44	2.59
318.15 K, x1 = 0.4001	2.25	3.46
323.15 K, x1 = 0.1999	2.68	1.85
323.15 K, x1 = 0.4001	2.48	3.1
323.15 K, x1 = 0.5006	2.25	4.26
323.15 K, x1 = 0.7036	1.75	8.8
328.15 K, x1 = 0.9012	1.52	13.9
333.15 K, x1 = 0.1027	–	1.3
338.15 K, x1 = 0.6015	2.74	4.26
338.15 K, x1 = 0.7036	2.46	6
343.15 K, x1 = 0.5006	3.3	2.71
343.15 K, x1 = 0.7036	2.7	5.4
